The experiment addresses T1, LATS2 (Homo sapiens, UniProt Q9NRM7).
T1 construct: purchased Thermo Fisher Scientific (Life Technologies) SelectScreen
As to the kind of experiment: SelectScreen LanthaScreen. It counts as binding. Particulars: 1 µM. The essentials:
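SelectScreen broad panel; activity (Z'LYTE, Adapta) plus binding formats. ATP: Km app for CSF1R Z'LYTE; 10 for CAMK1 Adapta. Readout = % per kinase.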

T1 sequence (Q9NRM7 whole entry): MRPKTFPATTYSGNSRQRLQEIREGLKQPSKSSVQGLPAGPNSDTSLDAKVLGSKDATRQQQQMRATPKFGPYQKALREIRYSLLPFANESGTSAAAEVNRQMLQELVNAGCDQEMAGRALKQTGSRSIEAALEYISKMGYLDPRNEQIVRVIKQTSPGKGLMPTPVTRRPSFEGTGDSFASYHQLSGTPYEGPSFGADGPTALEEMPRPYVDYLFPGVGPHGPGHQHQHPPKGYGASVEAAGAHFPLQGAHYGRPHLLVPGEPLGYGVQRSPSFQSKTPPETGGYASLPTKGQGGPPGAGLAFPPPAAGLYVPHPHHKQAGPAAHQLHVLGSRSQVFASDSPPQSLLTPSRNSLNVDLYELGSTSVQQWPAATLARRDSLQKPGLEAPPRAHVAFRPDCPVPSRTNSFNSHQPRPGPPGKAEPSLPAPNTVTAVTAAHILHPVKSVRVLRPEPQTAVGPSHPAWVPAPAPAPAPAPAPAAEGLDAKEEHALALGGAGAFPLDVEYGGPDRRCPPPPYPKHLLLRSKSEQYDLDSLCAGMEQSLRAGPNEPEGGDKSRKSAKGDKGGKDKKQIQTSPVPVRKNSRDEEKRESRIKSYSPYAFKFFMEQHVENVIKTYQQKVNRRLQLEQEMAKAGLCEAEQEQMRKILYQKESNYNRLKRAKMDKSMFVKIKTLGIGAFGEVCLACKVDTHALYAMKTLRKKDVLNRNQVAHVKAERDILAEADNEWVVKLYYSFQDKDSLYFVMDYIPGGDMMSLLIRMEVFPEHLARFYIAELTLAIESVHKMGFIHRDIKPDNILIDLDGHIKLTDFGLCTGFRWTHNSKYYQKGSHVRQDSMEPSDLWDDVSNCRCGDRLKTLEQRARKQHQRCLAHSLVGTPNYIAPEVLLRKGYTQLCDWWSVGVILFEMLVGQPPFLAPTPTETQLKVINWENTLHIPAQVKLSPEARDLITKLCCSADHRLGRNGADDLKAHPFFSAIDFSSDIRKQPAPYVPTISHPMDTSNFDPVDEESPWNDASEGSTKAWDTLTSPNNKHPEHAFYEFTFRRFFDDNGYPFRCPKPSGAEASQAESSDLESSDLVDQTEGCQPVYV

Take `CN(C(=O)CN1CCOCC1)c1ccc2sc3c(-c4cccc5c(=O)cc(N6CC7CCC(C6)O7)oc45)cccc3c2c1` [NU5455]: the “% displacement” value is reported as 4.7%.

Source of the values: publication PMC6934184, “Selective DNA-PKcs inhibition extends the therapeutic index of localized radiotherapy and chemotherapy” (The Journal of Clinical Investigation, 2019).
